Data published in patent US20120135089A1, “E3 LIGASE INHIBITORS” (priority 2009, published 2012).
Entries after “also recorded” stand apart in the source; their conditions may differ.

Tests used:
[1] = biological target: T1, Mdm2 RING-MdmX RING hetero-complex (Homo sapiens, UniProt O15151+Q00987); test: in vitro ubiquitination assay, Mdm2 RING-MdmX RING; type: biochemical
T1 construct: 500 ng GST-Mdm2 (residues 400-491); GST-MdmX (residues 410-490); made in house
Description: These assays were performed with 100 ng of full-length Flag-Mdm2 or 200 ng of Flag-Mdm2/HA-MdmX complexes (100 ng of each protein as each are present in a 1:1 ratio, when purified), ^32P-labeled ubiquitin, UbCH5c, and E1. Following a 30-minute incubation at 37° C., reactions were terminated and resolved on a SDS-PAGE gel followed by autoradiography. PC indicates positive control, and NC indicates negative control with UbCH5C eliminated from the reaction. The gels were quantified by phosphoimaging using ImageQuant software (GE Healthcare Bio-Sciences Corp., Piscataway, N.J.). […] Reactions were performed as in FIG. 11A except 500 ng GST-Mdm2 (residues 400-491) and GST-MdmX (residues 400-490) were used for ubiquitin polymerization. […] Reactions were performed as in FIG. 11A except with 3 μg of the Roc1/Cul1 ligase complex. Ubiquitination activity of the complex was tested in the presence of increasing concentrations of MEL23 and MEL24.
Radiolabeled in vitro ubiquitination assays were carried out in 30 μl reaction mixtures with ^32P-labeled ubiquitin. 500 ng GST-Mdm2 (residues 400-491) and GST-MdmX (residues 410-490) were used for the RING-RING reactions. The products of the reaction were resolved on a SDS-PAGE gel and visualized by autoradiography.

[2] = tested on: wild-type, p53−/− and p53−/−; mdm2−/− MEFs; test: Alamar Blue viability assay, mouse embryonic fibroblasts; type: cell-based; conditions: 48 hours
Description: (§1) RKO and RKO-E6 cells were seeded in 384-well plates and treated with a dilution series of MEL23 for 48 hours as indicated. Alamar Blue was added for 16 hours and fluorescence determined on a Victor3 Plate Reader. The median percent inhibition of five replicates was determined and normalized to a no treatment control. One standard deviation is shown. […] Cells were seeded in 384-well plates and treated with a dilution series of MEL23 for 48 hours at the indicated concentrations. Alamar Blue was added for 16 hours and fluorescence determined on a Victor3 Plate Reader. The median percent inhibition of five replicates was determined and normalized to a no treatment control. One standard deviation is shown.
(§2) Cells were seeded in 384-well black clear-bottom plates (Corning Inc., Corning, N.Y., Cat. No. 07-200-655). Cells were then treated with the indicated concentration of compound. Plates were incubated for 48 hours at 37° C. Alamar Blue (Invitrogen, Cat. No. DAL1100) was added to each well to a final concentration of 10% and incubated at 37° C. for 16 hours. Fluorescence intensity was determined using the Victor3 Plate Reader (PerkinElmer). Median percent survival or growth inhibition was calculated and normalized to a no treatment control.

[3] = tested on: RKO and RKO-E6 cells; test: Alamar Blue viability assay, RKO and RKO-E6 cells; type: cell-based, human; conditions: 48 hours, dilution series
Description: as §1, §2

[4] = tested on: Mdm2, p21, puma, and bax transcripts; test: qRT-PCR of p53 target genes in RKO cells; type: cell-based, human; conditions: 5 μg/ml MEL23, 24 or 48 hours
Description: (§3) RKO cells were treated with 5 μg/ml (14 μM) MEL23 for 24 or 48 hours. Quantitative real-time PCR was used to analyze the mRNA levels of the Mdm2, p21, puma, and bax transcripts. All values are normalized to no treatment, DMSO control. The figure is representative of three independent experiments and standard error bars represent intra-experimental error.
as §3, with “48 hours, 0.1 μg/ml (0.2 μM) doxorubicin for 48 hours, or 10 μM ALLN for 24” for “48”, “analyze” for “analyze the”, “were” for “are”, “treatment (NT),” for “treatment,”
RNA was harvested using RNeasy Mini kit (Qiagen, Cat. No. 74104) and first-strand cDNA synthesis was performed with the TaqMan Reverse Transcription Reagents for qRT-PCR (Applied Biosystems Inc., Foster City, Calif., Cat. No. N8080234) according to the manufacturers' protocol. Samples were analyzed by quantitative real-time PCR on an ABI 7300 real-time PCR instrument (Applied Biosystems) using the ΔΔCT method. PCR reaction mixtures contained 75 ng of cDNA, 1×SYBR Green Mix (Applied Biosystems, Cat. No. 4367659), and 100 nM primers. Values were normalized to those of the hprt1 housekeeping gene (47).

[5] = biological target: T2, Flag-Mdm2-HA-MdmX complex (Homo sapiens, UniProt O15151+Q00987); test: in vitro ubiquitination assay, Flag-Mdm2/HA-MdmX complex; type: biochemical
T2 construct: unlike the full-length complex, which was produced through co-expression of Mdm2 and MdmX in SF9 cells; made in house; host or cells: Sf9 insect cells, co-infection; purified on M2-agarose, then HA-agarose
Description: These assays were performed with 100 ng of full-length Flag-Mdm2 or 200 ng of Flag-Mdm2/HA-MdmX complexes (100 ng of each protein as each are present in a 1:1 ratio, when purified), ^32P-labeled ubiquitin, UbCH5c, and E1. Following a 30-minute incubation at 37° C., reactions were terminated and resolved on a SDS-PAGE gel followed by autoradiography. PC indicates positive control, and NC indicates negative control with UbCH5C eliminated from the reaction. The gels were quantified by phosphoimaging using ImageQuant software (GE Healthcare Bio-Sciences Corp., Piscataway, N.J.). […]
Ubiquitin reactions contain 50 ng E1, 1 μg PK-ubiquitin, 50 ng His-UbCH5C, and 100 ng Flag-Mdm2. […] The products were resolved by SDS-PAGE and analyzed by Western blotting with anti-p53, anti-Mdm2 SMP14, 2A10, 3G5 mix, or anti-MdmX. […] The graph represents the quantification of the Mdm2-ubiquitin species, normalized to the positive control. […]
Full-length Mdm2 in vitro ubiquitination reactions were performed in 15 μl reaction mixtures containing 50 mM TrisHC1 pH 7.5, 5 mM MgCl2, 2 mM NaF, 2 mM ATP, 0.6 mM DTT, 50 ng E1 (Boston Biochem, Cat. No. E-305), 1 μg PK-ubiquitin, 50 ng His-UbCH5C, and 100 ng Flag-Mdm2. […] The products were resolved by SDS-PAGE and analyzed by Western blot with anti-p53, anti-Mdm2 SMP14, 2A10, 3G5 mix, or anti-MdmX antibodies. […]

T2 sequence (Q00987 whole entry): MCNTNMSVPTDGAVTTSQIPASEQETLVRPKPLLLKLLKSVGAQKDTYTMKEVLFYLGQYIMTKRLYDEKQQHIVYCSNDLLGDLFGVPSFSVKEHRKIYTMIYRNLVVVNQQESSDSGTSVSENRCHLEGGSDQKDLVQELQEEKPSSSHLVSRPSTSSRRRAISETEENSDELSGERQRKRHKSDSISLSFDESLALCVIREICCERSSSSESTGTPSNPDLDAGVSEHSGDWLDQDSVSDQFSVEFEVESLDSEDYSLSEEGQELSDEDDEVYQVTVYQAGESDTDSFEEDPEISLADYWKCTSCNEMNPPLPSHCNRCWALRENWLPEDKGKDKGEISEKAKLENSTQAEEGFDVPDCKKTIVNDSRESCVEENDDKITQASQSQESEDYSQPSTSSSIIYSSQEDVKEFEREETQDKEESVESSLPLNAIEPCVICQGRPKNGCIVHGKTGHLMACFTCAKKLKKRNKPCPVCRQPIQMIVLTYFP
T2 sequence (O15151 whole entry): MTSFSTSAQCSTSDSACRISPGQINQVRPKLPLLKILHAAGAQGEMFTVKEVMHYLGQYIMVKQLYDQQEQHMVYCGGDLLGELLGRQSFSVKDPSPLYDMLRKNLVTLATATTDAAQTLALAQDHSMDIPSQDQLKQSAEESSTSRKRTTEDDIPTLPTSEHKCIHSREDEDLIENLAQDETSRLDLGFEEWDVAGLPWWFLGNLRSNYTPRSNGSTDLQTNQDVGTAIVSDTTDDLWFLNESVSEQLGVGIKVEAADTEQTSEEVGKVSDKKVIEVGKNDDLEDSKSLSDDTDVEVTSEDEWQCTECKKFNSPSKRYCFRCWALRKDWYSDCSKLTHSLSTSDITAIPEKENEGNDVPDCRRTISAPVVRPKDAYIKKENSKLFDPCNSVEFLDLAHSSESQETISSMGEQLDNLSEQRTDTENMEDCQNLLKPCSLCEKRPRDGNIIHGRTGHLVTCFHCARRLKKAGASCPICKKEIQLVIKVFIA
T1 sequence (Q00987 400-491): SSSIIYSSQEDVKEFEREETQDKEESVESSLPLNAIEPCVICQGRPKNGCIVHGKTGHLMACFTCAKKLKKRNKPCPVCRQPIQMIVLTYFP
T1 sequence (O15151 410-490): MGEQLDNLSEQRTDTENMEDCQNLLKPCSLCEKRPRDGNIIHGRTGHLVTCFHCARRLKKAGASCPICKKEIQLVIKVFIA

With `CCCCn1c(=O)[nH]c(O)c(C2NCCc3c2[nH]c2ccccc32)c1=O` (stereo not drawn) [MEL23] the “ubiquitination of the Mdm2 RING-MdmX RING hetero-complex” value [1] was “inhibited”, the “survival of p53−/− MEFs” value ([2]; dilution series) was “also decreased” and the “survival of wild-type MEFs” value ([2]; dilution series) was “survival of the wild-type cells decreased the greatest”. The “survival of p53−/− mdm2−/− MEFs” value ([2]; highest concentration tested) was “Only a small decrease in cell survival”, the RKO cell survival [3] was “decreased in a dose-dependent manner” and the RKO-E6 cell survival [3] was “remained largely unaffected”. For the same molecule, the “mRNA levels of p53 target genes Mdm2, p21, Bax, puma” value [4] was “increased within 48 hours of treatment; also recorded: increased the transcription of p53 target genes to intermediate levels compared to doxorubicin and ALLN”, the “ligase activity of the Mdm2-MdmX complex in vitro” value [5] was “significantly decreased the overall ligase activity; also recorded: inhibited” and the “activity of the Mdm2-MdmX complex toward p53 in vitro” value ([5]; Western blot) was “inhibited the activity of the Mdm2-MdmX complex toward p53”.
